Earlier results in patent US20120264119A1, “NEW METHOD FOR DECONTAMINATION AND PROCESSING OF CLINICAL SPECIMENS FROM A PATIENT” (priority 2011, published 2012).

Test system: Mycobacteria
Settings: sputum processing with sodium hydroxide alone or with N-acetyl-cysteine

[Na+].[OH-] [NaOH, sodium hydroxide]
viable mycobacteria destroyed: more than 80%
